Laboratory results taken from ChEMBL document CHEMBL1158278, “New macrocyclic spermine (budmunchiamine) alkaloids from Albizia gummifera: with some observations on the structure--activity relationships of the budmunchiamines” (J Nat Prod, 1996).
Converted amounts (≈) assume the structure as drawn.

What was measured:
[1] = tested on: Staphylococcus aureus; assay: Antibacterial activity against Staphylococcus aureus NCTC 6751 at 50 ug/disk; assay type: functional; conditions: read-out: IZ
[2] = tested on: Staphylococcus aureus; assay: Antibacterial activity against Staphylococcus aureus NCTC 6751; assay type: functional
[3] = tested on: Bacillus subtilis; assay: Antibacterial activity against Bacillus subtilis NCTC 8326 at 50 ug/disk; assay type: functional; conditions: read-out: IZ
[4] = tested on: Bacillus subtilis; assay: Antibacterial activity against Bacillus subtilis NCTC 8326; assay type: functional
[5] = tested on: Escherichia coli; assay: Antibacterial activity against Escherichia coli NCTC 9001 at 50 ug/disk; assay type: functional; conditions: read-out: IZ
[6] = tested on: Escherichia coli; assay: Antibacterial activity against Escherichia coli NCTC 9001; assay type: functional
[7] = tested on: Pseudomonas aeruginosa; assay: Antibacterial activity against Pseudomonas aeruginosa NCTC 6750 at 50 ug/disk; assay type: functional; conditions: read-out: IZ
[8] = tested on: Pseudomonas aeruginosa; assay: Antibacterial activity against Pseudomonas aeruginosa NCTC 6750; assay type: functional
[9] = Toxicity against brine shrimp; assay type: organism-based; conditions: artemia, in vivo

## CCCCCCCCCCCCCCCC1CC(=O)NCCCN(C)CCCCN(C)CCCN1 (configuration not stated)
[1]
  zone of inhibition at 50 µg/disc: 12 mm
[2]
  MIC: 15 µg/mL (≈ 30.3 µM)
[3]
  zone of inhibition at 50 µg/disc: 11 mm
[4]
  MIC: 20 µg/mL (≈ 40.4 µM)
[5]
  zone of inhibition at 50 µg/disc: 10 mm
[6]
  MIC: 27 µg/mL (≈ 54.6 µM)
[7]
  zone of inhibition at 50 µg/disc: 10 mm
[8]
  MIC: 32 µg/mL (≈ 64.7 µM)
[9]
  LC50: 16.5 µg/mL (≈ 33.3 µM)

## CCCCCCCCCCCCCCCC1CC(=O)NCCCNCCCCN(C)CCCN1C (configuration not stated)
[1]
  zone of inhibition at 50 µg/disc: 11 mm
[3]
  zone of inhibition at 50 µg/disc: 10 mm
[5]
  zone of inhibition at 50 µg/disc: 9 mm
[7]
  zone of inhibition at 50 µg/disc: 10 mm
[9]
  LC50: 18.2 µg/mL (≈ 36.8 µM)

## CCCCCCCCCCCCCCCC1CC(=O)NCCCN(C)CCCCNCCCN1C (configuration not stated)
[1]
  zone of inhibition at 50 µg/disc: 11 mm
[3]
  zone of inhibition at 50 µg/disc: 10 mm
[5]
  zone of inhibition at 50 µg/disc: 9 mm
[7]
  zone of inhibition at 50 µg/disc: 9 mm
[9]
  LC50: 15.9 µg/mL (≈ 32.1 µM)

## CCCCCCCC(O)CCCCCC1CC(=O)NCCCN(C)CCCCN(C)CCCN1C (configuration not stated)
[1]
  zone of inhibition at 50 µg/disc: 8 mm
[2]
  MIC: 35 µg/mL (≈ 70.4 µM)
[3]
  zone of inhibition at 50 µg/disc: 8 mm
[4]
  MIC: 45 µg/mL (≈ 90.6 µM)
[5]
  zone of inhibition at 50 µg/disc: 7 mm
[6]
  MIC: 72 µg/mL (≈ 145 µM)
[7]
  zone of inhibition at 50 µg/disc: 7 mm
[8]
  MIC: 84 µg/mL (≈ 169 µM)
[9]
  LC50: 79.7 µg/mL (≈ 160 µM)

## CCCCCCCCCC(O)CCCCCC1CC(=O)NCCCN(C)CCCCN(C)CCCN1 (configuration not stated)
[1]
  zone of inhibition at 50 µg/disc: 9 mm
[3]
  zone of inhibition at 50 µg/disc: 9 mm
[5]
  zone of inhibition at 50 µg/disc: 7 mm
[7]
  zone of inhibition at 50 µg/disc: 7 mm
[9]
  LC50: 60.4 µg/mL (≈ 118 µM)

## CCCCCCCCCC(O)CCCCCC1CC(=O)NCCCN(C)CCCCN(C)CCCN1C (configuration not stated)
[1]
  zone of inhibition at 50 µg/disc: 9 mm
[2]
  MIC: 30 µg/mL (≈ 57.2 µM)
[3]
  zone of inhibition at 50 µg/disc: 8 mm
[4]
  MIC: 42 µg/mL (≈ 80 µM)
[5]
  zone of inhibition at 50 µg/disc: 7 mm
[6]
  MIC: 64 µg/mL (≈ 122 µM)
[7]
  zone of inhibition at 50 µg/disc: 8 mm
[8]
  MIC: 75 µg/mL (≈ 143 µM)
[9]
  LC50: 69.1 µg/mL (≈ 132 µM)

## CCCCCCCCCCCC1CC(=O)NCCCN(C)CCCCN(C)CCCN1C (configuration not stated) [BUDMUNCHIAMINE A]
[1]
  zone of inhibition at 50 µg/disc: 10 mm
[2]
  MIC: 18 µg/mL (≈ 39.8 µM)
[3]
  zone of inhibition at 50 µg/disc: 11 mm
[4]
  MIC: 15 µg/mL (≈ 33.1 µM)
[5]
  zone of inhibition at 50 µg/disc: 11 mm
[6]
  MIC: 25 µg/mL (≈ 55.2 µM)
[7]
  zone of inhibition at 50 µg/disc: 10 mm
[8]
  MIC: 30 µg/mL (≈ 66.3 µM)
[9]
  LC50: 4 µg/mL (≈ 8.83 µM)

## CCCCCCCCCCCCCC1CC(=O)NCCCN(C)CCCCN(C)CCCN1 (configuration not stated) [BUDMUNCHIAMINE G]
[1]
  zone of inhibition at 50 µg/disc: 10 mm
[2]
  MIC: 18 µg/mL (≈ 38.6 µM)
[3]
  zone of inhibition at 50 µg/disc: 12 mm
[4]
  MIC: 24 µg/mL (≈ 51.4 µM)
[5]
  zone of inhibition at 50 µg/disc: 10 mm
[6]
  MIC: 30 µg/mL (≈ 64.3 µM)
[7]
  zone of inhibition at 50 µg/disc: 9 mm
[8]
  MIC: 35 µg/mL (≈ 75 µM)
[9]
  LC50: 12.3 µg/mL (≈ 26.3 µM)

## CCCCCCCCCCCCCCCC1CC(=O)NCCCN(C)CCCCN(C)CCCN1C (configuration not stated) [BUDMUNCHIAMINE K]
[1]
  zone of inhibition at 50 µg/disc: 11 mm
[2]
  MIC: 15 µg/mL (≈ 29.5 µM)
[3]
  zone of inhibition at 50 µg/disc: 10 mm
[4]
  MIC: 19 µg/mL (≈ 37.3 µM)
[5]
  zone of inhibition at 50 µg/disc: 11 mm
[6]
  MIC: 24 µg/mL (≈ 47.2 µM)
[7]
  zone of inhibition at 50 µg/disc: 11 mm
[8]
  MIC: 28 µg/mL (≈ 55 µM)
[9]
  LC50: 6.6 µg/mL (≈ 13 µM)

## O=C(N[C@H](CO)[C@H](O)c1ccc([N+](=O)[O-])cc1)C(Cl)Cl [CHLORAMPHENICOL]
[1]
  zone of inhibition at 50 µg/disc: 24 mm
[2]
  MIC: 7 µg/mL (≈ 21.7 µM)
[3]
  zone of inhibition at 50 µg/disc: 31 mm
[4]
  MIC: 7 µg/mL (≈ 21.7 µM)
[5]
  zone of inhibition at 50 µg/disc: 26 mm
[6]
  MIC: 12 µg/mL (≈ 37.1 µM)
[7]
  zone of inhibition at 50 µg/disc: 17 mm
[8]
  MIC: 26 µg/mL (≈ 80.5 µM)
